The test system of series [1] is classical complement pathway. Briefly: In vitro haemolysis assay (inhibition of classical complement pathway). It is filed as cell-based, human. The conditions noted are these: human serum, sensitized sheep red blood cells; Table 3, given as upper bounds; read-out: IC50, inhibition of hemolysis. The procedure, abridged:
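Compound dilutions preincubated 15 min at room temperature with diluted human serum (titrated per batch for 70-90% maximal haemolysis), then antibody-sensitized sheep RBC (10^7/well) added for 30 min at 37 °C in Tris/casein buffer, pH 7.4. Stopped with EDTA; haemolysis read at 405 nm; IC50 by 4PL fit.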

Series [2] can be described thus: Solubility test at 10 mg/mL (visual inspection and light scattering). It is filed as physicochemical. The following applies: for Solubility, Condition 1: Acetate pH 4; for Solubility, Condition 2: Acetate pH 5; for Solubility, Condition 3: Phosphate pH 6; for Solubility, Condition 4: Phosphate pH 7; for Solubility, Condition 5: Phosphate pH 7.5.

pIC50: −log10 of the molar value. Positions of bridges follow the written chain, without caps; N, C: chain ends. Non-standard residues stand in square brackets, D forms with d. Residues, ends and D or L forms follow the SMILES beside them. Trp(1-Me) = Cn1cc(C[C@H](N)C(=O)O)c2ccccc21; 2Nal = N[C@@H](Cc1ccc2ccccc2c1)C(=O)O; Sar = CNCC(=O)O

By pIC50 is commonly meant the IC50 on a negative log10 scale, so that one unit is a factor of ten. As for `CC[C@H](C)[C@H](NC(C)=O)C(=O)N[C@H]1CSSC[C@@H](C(=O)N[C@H](C(=O)NCC(=O)N[C@@H](C)C(=O)N[C@@H](CCC(=O)O)C(=O)N[C@@H](CO)C(N)=O)[C@@H](C)O)NC(=O)[C@H](CCCNC(=N)N)NC(=O)[C@H](Cc2c[nH]cn2)NC(=O)[C@H](CCC(=O)O)NC(=O)CNC(=O)[C@H](Cc2c[nH]c3ccccc23)NC(=O)[C@H](CC(=O)O)NC(=O)[C@H](CCC(N)=O)NC(=O)[C@H](Cc2cn(C)c3ccccc23)NC(=O)[C@H]([C@@H](C)CC)NC1=O` [Compound 51] (Ac-ICI[Trp(1-Me)]QDWGEHRCTGAES-NH2; disulfide 2-12), the pIC50 in series [1] is more than 7.00. For the same compound, in series [2], the “Solubility, Condition 1” value is “− (“−” denotes lack of solubility at the given condition, as UV absorbance at 340 nm exceeds 0.1 AU and/or it is visibly turbid or contains particles)”; the “Solubility, Condition 2” value is recorded as “− (“−” denotes lack of solubility at the given condition, as UV absorbance at 340 nm exceeds 0.1 AU and/or it is visibly turbid or contains particles)”; the “Solubility, Condition 3” value was “+ (“+” denotes solubility at the given condition, as determined by UV absorbance being less than 0.1 AU at 340 nm and the sample being clear when manually inspected)”; the “Solubility, Condition 4” value is “+ (“+” denotes solubility at the given condition, as determined by UV absorbance being less than 0.1 AU at 340 nm and the sample being clear when manually inspected)”. For the same compound, the “Solubility, Condition 5” value in series [2] was “+ (“+” denotes solubility at the given condition, as determined by UV absorbance being less than 0.1 AU at 340 nm and the sample being clear when manually inspected)”.
As for `CC[C@H](C)[C@@H]1NC(=O)[C@@H](NC(=O)[C@@H](NC(=O)[C@H](CCC(=O)O)NC(=O)[C@H](CO)NC(=O)[C@H](CCC(=O)O)NC(C)=O)[C@@H](C)CC)CSSC[C@@H](C(=O)N[C@H](C(N)=O)[C@@H](C)O)NC(=O)[C@H](CCCNC(=N)N)NC(=O)[C@H](Cc2c[nH]cn2)NC(=O)[C@H](CCC(=O)O)NC(=O)CNC(=O)[C@H](Cc2c[nH]c3ccccc23)NC(=O)[C@H](CC(=O)O)NC(=O)[C@H](CCC(N)=O)NC(=O)[C@H](Cc2c[nH]c3ccccc23)NC1=O` [Compound 31] (Ac-ESEICIWQDWGEHRCT-NH2; disulfide 5-15), in series [1], the pIC50 was more than 7.00. In series [2], the “Solubility, Condition 1” value was “+ (“+” denotes solubility at the given condition, as determined by UV absorbance being less than 0.1 AU at 340 nm and the sample being clear when manually inspected)”; the “Solubility, Condition 2” value was “+ (“+” denotes solubility at the given condition, as determined by UV absorbance being less than 0.1 AU at 340 nm and the sample being clear when manually inspected)”; the “Solubility, Condition 3” value was “+ (“+” denotes solubility at the given condition, as determined by UV absorbance being less than 0.1 AU at 340 nm and the sample being clear when manually inspected)”; the “Solubility, Condition 4” value is “+ (“+” denotes solubility at the given condition, as determined by UV absorbance being less than 0.1 AU at 340 nm and the sample being clear when manually inspected)”. Moreover, the “Solubility, Condition 5” value in series [2] was “+ (“+” denotes solubility at the given condition, as determined by UV absorbance being less than 0.1 AU at 340 nm and the sample being clear when manually inspected)”.
`CC[C@H](C)[C@@H]1NC(=O)[C@@H](NC(=O)[C@H](Cc2ccc(O)cc2)NC(C)=O)CSSC[C@@H](C(=O)N[C@H](C(=O)NCC(=O)N[C@@H](C)C(=O)N[C@@H](CCC(=O)O)C(=O)N[C@@H](CO)C(N)=O)[C@@H](C)O)NC(=O)[C@H](CCCNC(=N)N)NC(=O)[C@H](Cc2c[nH]cn2)NC(=O)[C@H](CCC(=O)O)NC(=O)CNC(=O)[C@H](Cc2c[nH]c3ccccc23)NC(=O)[C@H](CC(=O)O)NC(=O)[C@H](CCC(N)=O)NC(=O)[C@H](Cc2cn(C)c3ccccc23)NC1=O` [Compound 62] (Ac-YCI[Trp(1-Me)]QDWGEHRCTGAES-NH2; disulfide 2-12): the pIC50 in series [1] was more than 7.00. Also, in series [2], the “Solubility, Condition 1” value is on record as “− (“−” denotes lack of solubility at the given condition, as UV absorbance at 340 nm exceeds 0.1 AU and/or it is visibly turbid or contains particles)”; the “Solubility, Condition 2” value was “− (“−” denotes lack of solubility at the given condition, as UV absorbance at 340 nm exceeds 0.1 AU and/or it is visibly turbid or contains particles)”; the “Solubility, Condition 3” value is “+ (“+” denotes solubility at the given condition, as determined by UV absorbance being less than 0.1 AU at 340 nm and the sample being clear when manually inspected)”; the “Solubility, Condition 4” value was “+ (“+” denotes solubility at the given condition, as determined by UV absorbance being less than 0.1 AU at 340 nm and the sample being clear when manually inspected)”. Further, in series [2], the “Solubility, Condition 5” value was “+ (“+” denotes solubility at the given condition, as determined by UV absorbance being less than 0.1 AU at 340 nm and the sample being clear when manually inspected)”.
As for `CC[C@H](C)[C@H](NC(=O)[C@H](C)NC(=O)[C@H](CO)NC(=O)CNC(C)=O)C(=O)N[C@H]1CSSC[C@@H](C(=O)N(C)CC(=O)N[C@@H](CCC(=O)O)C(N)=O)NC(=O)[C@H](CCCNC(=N)N)NC(=O)[C@H](Cc2c[nH]cn2)NC(=O)[C@H](CCC(=O)O)NC(=O)CNC(=O)[C@H](Cc2c[nH]c3ccccc23)NC(=O)[C@H](CC(=O)O)NC(=O)[C@H](CCC(N)=O)NC(=O)[C@H](Cc2c[nH]c3ccccc23)NC(=O)[C@H]([C@@H](C)CC)NC1=O` [Compound 40] (Ac-GSAICIWQDWGEHRC[Sar]E-NH2; disulfide 5-15), the pIC50 in series [1] was more than 6.60. In series [2], the “Solubility, Condition 1” value is “− (“−” denotes lack of solubility at the given condition, as UV absorbance at 340 nm exceeds 0.1 AU and/or it is visibly turbid or contains particles)”; the “Solubility, Condition 2” value is on record as “− (“−” denotes lack of solubility at the given condition, as UV absorbance at 340 nm exceeds 0.1 AU and/or it is visibly turbid or contains particles)”; the “Solubility, Condition 3” value was “+ (“+” denotes solubility at the given condition, as determined by UV absorbance being less than 0.1 AU at 340 nm and the sample being clear when manually inspected)”; the “Solubility, Condition 4” value was “+ (“+” denotes solubility at the given condition, as determined by UV absorbance being less than 0.1 AU at 340 nm and the sample being clear when manually inspected)”. For the same compound, the “Solubility, Condition 5” value in series [2] was “+ (“+” denotes solubility at the given condition, as determined by UV absorbance being less than 0.1 AU at 340 nm and the sample being clear when manually inspected)”.
For the compound `CC[C@H](C)[C@H](NC(=O)[C@H](C)NC(=O)[C@H](CO)NC(=O)CNC(=O)[C@H](CCC(=O)O)NC(C)=O)C(=O)N[C@H]1CSSC[C@@H](C(=O)N(C)CC(=O)N[C@@H](CCC(=O)O)C(=O)NCC(=O)N[C@@H](CCC(=O)O)C(N)=O)NC(=O)[C@H](CCCNC(=N)N)NC(=O)[C@H](Cc2c[nH]cn2)NC(=O)[C@H](CCC(=O)O)NC(=O)CNC(=O)[C@H](Cc2c[nH]c3ccccc23)NC(=O)[C@H](CC(=O)O)NC(=O)[C@H](CCC(N)=O)NC(=O)[C@H](Cc2c[nH]c3ccccc23)NC(=O)[C@H]([C@@H](C)CC)NC1=O` [Compound 44] (Ac-EGSAICIWQDWGEHRC[Sar]EGE-NH2; disulfide 6-16), in series [1], the pIC50 was more than 6.60. For the same compound, in series [2], the “Solubility, Condition 1” value is reported as “− (“−” denotes lack of solubility at the given condition, as UV absorbance at 340 nm exceeds 0.1 AU and/or it is visibly turbid or contains particles)”; the “Solubility, Condition 2” value is “− (“−” denotes lack of solubility at the given condition, as UV absorbance at 340 nm exceeds 0.1 AU and/or it is visibly turbid or contains particles)”; the “Solubility, Condition 3” value was “+ (“+” denotes solubility at the given condition, as determined by UV absorbance being less than 0.1 AU at 340 nm and the sample being clear when manually inspected)”; the “Solubility, Condition 4” value was “+ (“+” denotes solubility at the given condition, as determined by UV absorbance being less than 0.1 AU at 340 nm and the sample being clear when manually inspected)”. For the same compound, the “Solubility, Condition 5” value in series [2] is “+ (“+” denotes solubility at the given condition, as determined by UV absorbance being less than 0.1 AU at 340 nm and the sample being clear when manually inspected)”.
As for `CC[C@H](C)[C@@H]1NC(=O)[C@@H](NC(=O)[C@H](Cc2ccc(O)cc2)NC(C)=O)CSSC[C@@H](C(=O)N[C@H](C(=O)NCC(=O)N[C@@H](C)C(=O)N[C@@H](CCC(=O)O)C(=O)N[C@@H](CO)C(N)=O)[C@@H](C)O)NC(=O)[C@H](CCCNC(=N)N)NC(=O)[C@H](Cc2c[nH]cn2)NC(=O)[C@H](CCC(=O)O)NC(=O)CNC(=O)[C@H](Cc2c[nH]c3ccccc23)NC(=O)[C@H](CC(=O)O)NC(=O)[C@H](CCC(N)=O)NC(=O)[C@H](Cc2ccc3ccccc3c2)NC1=O` [Compound 65] (Ac-YCI[2Nal]QDWGEHRCTGAES-NH2; disulfide 2-12), the pIC50 in series [1] is more than 7.00. For the same compound, in series [2], the “Solubility, Condition 1” value is listed as “− (“−” denotes lack of solubility at the given condition, as UV absorbance at 340 nm exceeds 0.1 AU and/or it is visibly turbid or contains particles)”; the “Solubility, Condition 2” value is on record as “− (“−” denotes lack of solubility at the given condition, as UV absorbance at 340 nm exceeds 0.1 AU and/or it is visibly turbid or contains particles)”; the “Solubility, Condition 3” value was “+ (“+” denotes solubility at the given condition, as determined by UV absorbance being less than 0.1 AU at 340 nm and the sample being clear when manually inspected)”; the “Solubility, Condition 4” value is “+ (“+” denotes solubility at the given condition, as determined by UV absorbance being less than 0.1 AU at 340 nm and the sample being clear when manually inspected)”. Besides, in series [2], the “Solubility, Condition 5” value is “+ (“+” denotes solubility at the given condition, as determined by UV absorbance being less than 0.1 AU at 340 nm and the sample being clear when manually inspected)”.

The record behind these values is patent US11965039B2, “Compstatin analogues and their medical uses” (priority 2018, dated 2024).
